Where a SMILES comes first, the peptide text is derived from it. The star is where a group is joined. Cbz = O=C(OCc1ccccc1)*
Tests used:
S phase chromatin = assay: Super-resolution microscopy of TetR-mCherry tagged locus 3D volume (chromatin expansion); format: cell-based, Saccharomyces cerevisiae; settings: cells fixed 30 min after exposure to different amounts of Zeocin
Text: Structured illumination images were acquired on a Zeiss Elyra S.1 microscope with a Andor iXon 885 EMCCD camera using a HR diode 488 […] solid state laser, BP 525-580+LP 750 filter and a PLAN-APOCHROMAT 63×N.A. 1.4 oil DIC objective lens. Cells were first fixed in PFA 4%, washed 3 times in PBS and then attached to a thin SIM grade Zeiss 1.5 glass coverslip using Concanavalin A. Cells were fully sectioned by 50-65 slices with […] intervals taken at 60 ms exposures per slice using 5 rotations of the illumination grid. Brightfield images of the cells were also acquired using an X-Cite PC 120 EXFO Metal Halide lamp. Zen Black was used to process the images using automatic settings with the Raw Scale option selected. 3D stacks were then analyzed by using pixel classification and a custom Matlab script to determine the spot volumes and other features as follows. […] Features calculated at the labeled pixels and their local neighborhood are then used to train a pixel classifier based on a Random Forest ensemble learning method. […] Finally, the program generates an ascii file where the key features like volume and solidity 3D and descriptive statistics are listed for all detected nuclei and foci. The solidity factor is calculated as the proportion of pixels in the 3D convex hull. […]

histone H3/H4 = assay: Quantitative immunoblot analysis of histone H3/H4 loss and DDC activation; format: cell-based, Saccharomyces cerevisiae
Procedure: The total protein content in the relevant samples was determined with the Quant-iT protein assay kit (Thermo Scientific) and 8.75 μg of total protein was loaded and run on Criterion TGX Stain-Free 8-16% (Biorad) gels under SDS denaturing electrophoresis conditions. Rapid fluorescent detection of all proteins in the gel or on the membrane was done according to the manufacturer's specifications and protein transfer on PVDF membranes was performed using the Trans-Blot Turbo system. Rad53 protein was detected using a custom-made mouse monoclonal antibody (GenScript) against FHA2 domain of Rad53. Anti-yH2A was similarly a custom-made polyclonal antibody, that is specific for phospho-S129 in yeast H2A.

Histone H3 (H3-CFP) = assay: Time-lapse live cell tracking of H3-CFP in microfluidic chambers; format: cell-based, Saccharomyces cerevisiae
Procedure: For H3-CFP (Strain GA-3364 and derivatives) and 2-foci (Strain GA-9777) live cell fluorescent microscopy, LOG phase cells were trapped with 3 pulses of 5 psi pressure in CellASIC plates of the ONIX microfluidic perfusion system (Merck Millipore). All perfusions were done at a continuous flow rate of 2 psi pressure. After a 20-30 minute recovery phase, cells were treated for 30 minutes with the indicated amount of Zeocin prior to high-speed CFP-RFP tracking microscopy. The recovery phase of H3-CFP tagged cells was 20 minutes after which they were treated with a pulse of Zeocin for 1 hour and H3-CFP fluorescence was followed for additional 40 minutes after treatment.
Live microscopy was done on a temperature controllable Olympus IX81 microscope with a Yokogawa CSU-X1 scanning head equipped with two EM-CCD EvolveDelta (Photometrics) cameras, an ASI MS-2000 Z-piezo stage and a PlanApo x100, NA 1.45 total internal reflection fluorescence microscope oil objective and Visiview software. For mRFP-GFP or mRFP-CFP high-speed tracking, fluorophores were excited with lasers at 561 nm (mCherry or mRFP) and 491 nm (GFP) or 440 nm (CFP) and emitted fluorescence was acquired simultaneously on separate cameras (Semrock FF01-617/73-25 filter for mCherry/mRFP and Semrock FF02-525/40-25 filter for GFP or Semrock FF01-475/42-25 for CFP). High-speed time-lapse series were conducted taking 8 optical slices per stack either every 80 ms for 1 min or 300 ms for 2 min, with 10 ms exposure times per slice respectively. Time-lapse image stacks were analyzed as in Dion et al. 9, using a custom made ImageJ (FIJI) plug-in36 to extract coordinates of locus position from the movies. Phototoxicity was tested by exposing wild-type cells (GA-6879) to standard imaging conditions and following outgrowth for 5 h by morphological analysis, comparing them with unexposed cells. […] Boxplot graphs were generated by plotting all measured distances of treated or untreated cells. […] For each frame, the distance vector of tracks in two channels was measured by selecting the two spots with minimal distance. […]

nucleosome occupancy = assay: Genome-wide nucleosome mapping (MNase-seq with Candida glabrata spike-in); format: cell-based, Saccharomyces cerevisiae; settings: Zeocin 500 μg/ml for 1 hour; reads normalized to C. glabrata
Procedure: Strains tested for changes in nucleosome occupancy (GA-6879 and GA-8386) were grown in appropriate media to OD600=0.8. Cultures were split into two and one of them was treated with Zeocin (500 μg/ml) for 1 hour. At this point the OD600 absorbance of each sample was measured and Candida glabrata cells were spiked in to 1/10 according to the sample OD600. Cells were washed three times with ice cold TBS (20 MM Tris.HCl pH8.0 and 150 mM NaCl) and lysed by beat beating in MNase digestion buffer (10 mM Tris pH 8.0, 50 mM NaCl, 5 mM MgCl2, 1 mM CaCl2), 1 mM beta-mercaptoethanol, 0.5 mM spermidine, 0.075% NP40). The obtained chromatin samples were MNase digested to isolate mono-nucleosomes and sequencing libraries were prepared according to the method described in Wiechens, N. et al. (Wiechens et al. 2016). Paired end libraries of MNase digested chromatin were sequenced using Illumina HiSeq technology. Fastq files containing raw reads were aligned to the S. cerevisiae and C. glabrata reference genomes by Bowtie2 with option of maximum fragment length 500 for nucleosome fragments. The nucleosome dyads at each position were calculated in a defined window flanking the transcription start site (TSS). […] The reads were further normalized by dividing the fraction of C. glabrata reads in the sample. […]

chromatin fiber = assay: 3D distance between two differentially labeled genomic loci (chromatin flexibility); format: cell-based, Saccharomyces cerevisiae; settings: for average inter-spot distance between lacI-GFP and TetR-mRFP tagged loci after DNA damage: loci 320 kbp apart on Chr XIV
Text: Live microscopy was done on a temperature controllable Olympus IX81 microscope with a Yokogawa CSU-X1 scanning head equipped with two EM-CCD EvolveDelta (Photometrics) cameras, an ASI MS-2000 Z-piezo stage and a PlanApo x100, NA 1.45 total internal reflection fluorescence microscope oil objective and Visiview software. For mRFP-GFP or mRFP-CFP high-speed tracking, fluorophores were excited with lasers at 561 nm (mCherry or mRFP) and 491 nm (GFP) or 440 nm (CFP) and emitted fluorescence was acquired simultaneously on separate cameras (Semrock FF01-617/73-25 filter for mCherry/mRFP and Semrock FF02-525/40-25 filter for GFP or Semrock FF01-475/42-25 for CFP). High-speed time-lapse series were conducted taking 8 optical slices per stack either every 80 ms for 1 min or 300 ms for 2 min, with 10 ms exposure times per slice respectively. Time-lapse image stacks were analyzed as in Dion et al. 9, using a custom made ImageJ (FIJI) plug-in36 to extract coordinates of locus position from the movies. Phototoxicity was tested by exposing wild-type cells (GA-6879) to standard imaging conditions and following outgrowth for 5 h by morphological analysis, comparing them with unexposed cells. Time-series acquired from Strains GA-9227 and GA-9777 (Two-spot data) were deconvolved using Huygens Remote Manager, channel-aligned and cropped to contain one single cell/nucleus with the two respective fluorescent spots. Spot tracking over time was done with the ImageJ plugin TrackMate included in Fiji37. Boxplot graphs were generated by plotting all measured distances of treated or untreated cells. Relative MSD analysis was performed with KNIME38. For each frame, the distance vector of tracks in two channels was measured by selecting the two spots with minimal distance. The inventors performed an MSD analysis on the distance vectors for all frames and tracks with a maximum MSD(t) value bigger than 10 μm^2 were considered as outliers (due to mis-matching two distant tracks) and removed from the analysis. Relative MSD vs. t was averaged over all tracks and plotted using R.

[1] = tested on: core histones H2A, H2B, H3 and H4; assay: Quantitative SILAC mass spectrometry of histone abundance before and after Zeocin; format: cell-based, Saccharomyces cerevisiae; settings: acute treatment (1 hour) with Zeocin
Procedure: For SILAC based mass spectrometry, lysine and arginine double labeling of the lys2A arg4A strain yAG-06A was achieved by growth for at least ten generations in “heavy” medium as described previously in Gruhler et al. 34. After growth to LOG phase or at G1 cell cycle arrest, “light” labeled cells (or “heavy” labeled cells for label-swap controls) were treated for 1 h with Zeocin and mixed 1:1 based on exact cell count with “heavy” labeled (“light” for label-swap control), non-treated control cells. Prior to mixing, FACS and Western blot samples were taken to test for cell cycle distribution and DDC activation.
Chromatin fractionation was performed as previously described with the modification that chromatin obtained from SILAC labeled yeast samples was resuspended in Urea Buffer (50 mM TRIS pH 7.5, 6 M Urea, 1% SDS, 5 mM EDTA) sonicated for optimal solubilizing of proteins followed by a TCA protein precipitation step prior to downstream mass spectrometric analysis. To avoid carbamylation in urea buffer, samples were kept below 20° C. and quickly processed. Control samples from whole cell extract (WCE), supernatant (SUP) and chromatin fraction (CHR) were analyzed with SDS-PAGE (Novex 8-16% Tris-Glycine Gel, Invitrogen) gel electrophoresis followed by Coomassie staining. […]

proteasome = molecular target: T1, proteasome (Saccharomyces cerevisiae, UniProt P23724+P30656); assay: Suppression of damage-induced histone degradation by proteasome inhibition; format: cell-based; settings: Zeocin-damaged cells
T1 construct: endogenous in cells; host or cells: Saccharomyces cerevisiae (budding yeast) cells treated with Zeocin

Compound	decompaction of S phase chromatin (3D TetR-mCherry foci volumes) (S phase chromatin)	histone depletion in histone-shutdown strain with constitutive H3/H4 expression (histone H3/H4; growth in media with low level galactose, compared with cells with endogenous histone genes)	DDC activation (yH2A signal) (histone H3/H4; quantitative immunoblot)	relationship between histone H3/H4 loss and Zeocin treatment (histone H3/H4; quantitative immunoblot)	time of Zeocin exposure within which histone H3 degradation occurred (Histone H3 (H3-CFP); H3-CFP fluorescence) [min]	Histone H3 degradation compared to undamaged cells (Histone H3 (H3-CFP); H3-CFP fluorescence, within 30 minutes of Zeocin exposure) [%]	DSBs per genome generated (Histone H3 (H3-CFP); pulse-treated for 1 h with Zeocin)	nucleosome occupancy within promoters and across coding regions (nucleosome occupancy)	average inter-spot distance between lacI-GFP and TetR-mRFP tagged loci after DNA damage (chromatin fiber; G1 cells, printed 0.97-1.2 (before-after)) [μm]	average inter-spot distance between lacI-GFP and TetR-mRFP tagged loci after DNA damage (chromatin fiber; S-phase cells, printed 0.99-1.12 (before-after)) [μm]	inter-spot dynamics and distances between CFP-lacI and TetR-mRFP tagged foci (chromatin fiber; loci 50 kbp apart on Chr III, real time)	levels of the histone variant Htz1 (H2A.Z) [1]	loss of all core histones H2A, H2B, H3 and H4 (ratios of non-modified histone peptides, damage over control L/H) [1]	effect on DNA damage-induced H3 or H4 degradation (proteasome)
Zeocin	dose-dependent decompaction	same depletion effect	robust DDC activation	dose-dependent relationship	≤ 30	~30	4-7 DSBs per genome	drop in nucleosome occupancy	1.2	1.12	robust increase	remained stable	20-40%	
CC(C)C[C@@H](C=O)NC(=O)[C@H](CC(C)C)NC(=O)[C@H](CC(C)C)NC(=O)OCc1ccccc1 [MG132] (Cbz-Leu-Leu-Leu-aldehyde)														suppressed

— patent publication US20190300911A1, “METHODS FOR INCREASING THE FREQUENCY OF GENE TARGETING BY CHROMATIN MODIFICATION” (FRIEDRICH MIESCHER INSTITUTE FOR BIOMEDICAL RESEARCH, priority 2016, published 2019)
